Laboratory results published in patent US7642269B2, “Pyrrolo[3,2-B]pyridine derivatives and processes for the preparation thereof” (Yuhan Corporation, priority 2005, dated 2010).
Where a name gives a salt, the structure may show the parent alone.

Target: T1, H^+/K^+-ATPase (Sus scrofa, UniProt P19156)
T1 construct: used as an enzyme source of the in vitro enzyme reaction assay of proton pump; from tissue; host or cells: hog gastric fundic mucosa (membrane vesicles, lyophilized)
Experiment: Inhibitory effects on proton pump (H^+/K^+-ATPase) activity, hog gastric vesicles
Format: biochemical
Details: K^+ stimulated H^+/K^+-ATPase activity, hog gastric vesicle, Pi measured at 620 nm
Protocol: Preparation of Gastric Proton Pump Vesicles
The hog fundic regions containing parietal and peptic cells were scraped with slide-glass. The collected cells were suspended in 10 ml of 0.25M sucrose buffer and homogenized using a tight-fitting Teflon-glass homogenizer. The homogenate was centrifuged for 35 min at 8,000 rpm and the pellet was discarded. The supernatant was further centrifuged for 75 min at 25,000 rpm. The resulting pellets were re-suspended in the sucrose buffer (10 ml), and then the suspension was laid onto discontinuous density gradients consisting of 0.25M sucrose buffer and isolation medium containing 9% Ficoll (w/w). After being centrifuged for 3 hours and 15 minutes at 100,000×g, the material at the interface of sucrose buffer and Ficoll solution was collected and then centrifuged for 40 minutes at 100,000×g. The resulting pellets were re-suspended in 1 ml of 5 mM Hepes/Tris buffer (pH 6.1). This material was lyophilized and stored at −70° C. and used as an enzyme source of the in vitro enzyme reaction assay of proton pump.
1-2. Measurement of Inhibitory Effects on Proton Pump (H+/K+-ATPase) activity
The inhibitory effects of the compounds of the present invention against proton pump activity were evaluated in 96-well plate. In this assay, the K^+ specific H^+/K^+-ATPase activity was calculated based on the difference between the activity of H^+/K^+-ATPase activity with K^+ and without K^+ ion. In 96-well plate, 1% dimethylsulfoxide (DMSO) in buffer was added to negative and positive control groups and the diluted compounds of the present invention in buffer were added to test group. All assays were performed in 100 μl reaction volume at room temperature, and the hog gastric vesicle was kept in ice before use. At the beginning of the reaction, 10 μl of reaction buffer containing 1% DMSO was added to the negative and positive control groups and to each concentration of compounds in the test group. Then lyophilized vesicle in 5 mM Pipes/Tris buffer (pH 6.1) was pre-incubated in the presence of various concentrations of test compounds. After a 5 minute incubation, negative and positive buffers were respectively added to the previous reaction mixture. As the substrate, ATP was added to the reaction buffer, and incubated for 30 minutes at 37° C. Enzymatic activity was stopped by the addition of colorimetric reagent (2× malachite green, 1× ammonium molybdate, 1× polyvinyl alcohol, 2× H2O) and the amount of mono phosphate (Pi) in the reaction was measured at 620 nm using the micro plate reader (Genios Pro, TECAN). The difference between the Pi production with K^+ and without K^+ is taken as K^+ stimulated H^+/K^+-ATPase activity.

T1 sequence (P19156 2-1034 limits assumed): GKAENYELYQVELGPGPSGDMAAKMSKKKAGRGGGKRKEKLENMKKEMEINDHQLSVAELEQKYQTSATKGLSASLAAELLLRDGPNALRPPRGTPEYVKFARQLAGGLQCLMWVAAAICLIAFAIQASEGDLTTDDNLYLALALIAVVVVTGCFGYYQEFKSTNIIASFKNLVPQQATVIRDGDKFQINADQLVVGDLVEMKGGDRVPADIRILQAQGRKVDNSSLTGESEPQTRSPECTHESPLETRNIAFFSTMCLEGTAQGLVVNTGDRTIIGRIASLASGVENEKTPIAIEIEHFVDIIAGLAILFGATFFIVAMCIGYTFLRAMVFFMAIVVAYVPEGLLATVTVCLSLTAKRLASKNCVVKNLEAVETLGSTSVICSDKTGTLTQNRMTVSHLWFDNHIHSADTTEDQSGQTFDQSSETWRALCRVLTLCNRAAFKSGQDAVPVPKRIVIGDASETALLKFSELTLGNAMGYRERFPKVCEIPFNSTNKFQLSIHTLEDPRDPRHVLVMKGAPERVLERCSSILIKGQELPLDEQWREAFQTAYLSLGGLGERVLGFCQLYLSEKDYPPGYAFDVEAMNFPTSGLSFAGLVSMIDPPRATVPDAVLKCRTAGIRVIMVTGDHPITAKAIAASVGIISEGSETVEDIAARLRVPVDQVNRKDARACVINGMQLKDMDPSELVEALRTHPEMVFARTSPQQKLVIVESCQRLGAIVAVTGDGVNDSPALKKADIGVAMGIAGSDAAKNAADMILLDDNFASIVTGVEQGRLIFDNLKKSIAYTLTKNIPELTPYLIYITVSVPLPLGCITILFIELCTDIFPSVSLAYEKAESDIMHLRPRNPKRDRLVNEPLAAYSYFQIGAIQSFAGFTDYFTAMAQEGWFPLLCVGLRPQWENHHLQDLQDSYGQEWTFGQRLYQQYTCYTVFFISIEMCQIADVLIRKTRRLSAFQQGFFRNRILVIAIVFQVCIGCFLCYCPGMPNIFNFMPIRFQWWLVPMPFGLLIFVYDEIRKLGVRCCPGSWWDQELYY
T1 sequence (P18434 whole entry partner): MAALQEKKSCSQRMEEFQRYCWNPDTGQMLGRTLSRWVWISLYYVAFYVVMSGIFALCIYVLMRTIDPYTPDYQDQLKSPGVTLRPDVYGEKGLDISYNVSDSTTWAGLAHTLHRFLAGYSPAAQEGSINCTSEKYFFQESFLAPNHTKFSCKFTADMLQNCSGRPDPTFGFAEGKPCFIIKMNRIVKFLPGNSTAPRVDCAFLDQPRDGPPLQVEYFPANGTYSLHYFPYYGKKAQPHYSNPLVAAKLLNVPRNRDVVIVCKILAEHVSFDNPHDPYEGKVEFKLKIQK

Row | Structure (SMILES) | IC50
1 | Cc1cccc(COc2ccnc3c(C)c(C)n(Cc4ccc(F)cc4)c23)c1 [Example 158, 1-(4-fluorobenzyl)-2,3-dimethyl-7-(3-methylbenzyloxy)-1H-pyrrolo[3,2-b]pyridine hydrochloride] | 320 nM
2 | Cc1c(C)n(Cc2ccccc2F)c2c(OCc3ccc(Br)cc3)ccnc12 [Example 225, 7-(4-bromobenzyloxy)-1-(2-fluorobenzyl)-2,3-dimethyl-1H-pyrrolo[3,2-b]pyridine hydrochloride] | 620 nM
3 | CCn1c(C)c(C)c2nccc(OCc3ccc(Cl)cc3Cl)c21 [Example 137, 7-(2,4-dichlorobenzyloxy)-1-ethyl-2,3-dimethyl-1H-pyrrolo[3,2-b]pyridine hydrochloride] | 60 nM
4 | Cc1c(C)n(Cc2ccc3ccccc3c2)c2c(OCc3ccc(F)cc3)ccnc12 [Example 37, 7-(4-fluorobenzyloxy)-2,3-dimethyl-1-(naphthalen-2-ylmethyl)-1H-pyrrolo[3,2-b]pyridine hydrochloride] | 1260 nM
5 | C=CCn1c(C)c(C)c2nccc(N3CCc4ccccc4C3)c21 [Example 7, 1-allyl-7-(1,2,3,4-tetrahydroisoquinolin-2-yl)-2,3-dimethyl-1H-pyrrolo[3,2-b]pyridine hydrochloride] | 220 nM
6 | Cc1cccc(Cn2c(C)c(C)c3nccc(OCc4ccc(Br)cc4)c32)c1 [Example 223, 7-(4-bromobenzyloxy)-2,3-dimethyl-1-(3-methylbenzyl)-1H-pyrrolo[3,2-b]pyridine hydrochloride] | 1210 nM
7 | Cc1cccc(Cn2c(C)c(C)c3nccc(OCc4ccc5c(c4)OCO5)c32)c1 [Example 113, 7-(benzo[1,3]dioxol-5-ylmethoxy)-2,3-dimethyl-1-(3-methylbenzyl)-1H-pyrrolo[3,2-b]pyridine hydrochloride] | 1420 nM
8 | Cc1c(C)n(Cc2cccc(F)c2)c2c(OCc3ccc(Br)cc3)ccnc12 [Example 222, 7-(4-bromobenzyloxy)-1-(3-fluorobenzyl)-2,3-dimethyl-1H-pyrrolo[3,2-b]pyridine hydrochloride] | 60 nM
9 | Cc1c(C)n(Cc2ccccc2F)c2c(OCc3ccc4c(c3)OCO4)ccnc12 [Example 101, 7-(benzo[1,3]dioxol-5-ylmethoxy)-1-(2-fluorobenzyl)-2,3-dimethyl-1H-pyrrolo[3,2-b]pyridine hydrochloride] | 1010 nM
10 | Cc1c(C)n(CC(C)C)c2c(OCc3ccc4c(c3)OCO4)ccnc12 [Example 120, 7-(benzo[1,3]dioxol-5-ylmethoxy)-1-isobutyl-2,3-dimethyl-1H-pyrrolo[3,2-b]pyridine hydrochloride] | 120 nM
11 | C=CCn1c(C)c(C)c2nccc(OCc3cccc(C)c3)c21 [Example 155, 1-allyl-2,3-dimethyl-7-(3-methylbenzyloxy)-1H-pyrrolo[3,2-b]pyridine hydrochloride] | 570 nM
12 | C=CCn1c(C)c(C)c2nccc(OCc3ccc4c(c3)OCO4)c21 [Example 98, 1-allyl-7-(benzo[1,3]dioxol-5-ylmethoxy)-2,3-dimethyl-1H-pyrrolo[3,2-b]pyridine hydrochloride] | 620 nM
13 | Cc1cccc(COc2ccnc3c(C)c(C)n(CC4CC4)c23)c1 [Example 154, 1-cyclopropylmethyl-2,3-dimethyl-7-(3-methylbenzyloxy)-1H-pyrrolo[3,2-b]pyridine hydrochloride] | 240 nM
14 | Cc1ccc(Cn2c(C)c(C)c3nccc(OCc4ccc(C(F)(F)F)cc4)c32)cc1 [Example 200, 2,3-dimethyl-1-(4-methylbenzyl)-7-(4-trifluoromethylbenzyloxy)-1H-pyrrolo[3,2-b]pyridine hydrochloride] | 600 nM
15 | Cc1nc2c(C)c(C)n(Cc3ccccc3)c2c(NCc2ccc(F)cc2)c1C [Example 268, N-(1-benzyl-2,3,5,6-tetramethyl-1H-pyrrolo[3,2-b]pyridin-7-yl)-4-fluorobenzylamine hydrochloride] | 1250 nM
16 | Cc1c(C)n(CC2CCC2)c2c(OCc3ccc(Br)cc3)ccnc12 [Example 227, 7-(4-bromobenzyloxy)-1-cyclobutylmethyl-2,3-dimethyl-1H-pyrrolo[3,2-b]pyridine hydrochloride] | 90 nM
17 | Cc1cccc(COc2ccnc3c(C)c(C)n(Cc4ccc(Cl)cc4)c23)c1 [Example 147, 1-(4-chlorobenzyl)-2,3-dimethyl-7-(3-methylbenzyloxy)-1H-pyrrolo[3,2-b]pyridine hydrochloride] | 3450 nM

Row | Structure (SMILES) | IC50
18 | Cc1c(C)n(Cc2ccc(Cl)cc2)c2c(OCc3ccc(F)cc3)ccnc12 [Example 33, 1-(4-chlorobenzyl)-7-(4-fluorobenzyloxy)-2,3-dimethyl-1H-pyrrolo[3,2-b]pyridine hydrochloride] | 650 nM
19 | COCCn1c(C)c(C)c2nccc(OCc3ccc(F)cc3)c21 [Example 123, 7-(4-fluorobenzyloxy)-1-(2-methoxyethyl)-2,3-dimethyl-1H-pyrrolo[3,2-b]pyridine methanesulfonate] | 60 nM
20 | Cc1c(C)n(Cc2ccc(F)cc2)c2c(OCc3ccc(Cl)cc3Cl)ccnc12 [Example 140, 7-(2,4-dichlorobenzyloxy)-1-(4-fluorobenzyl)-2,3-dimethyl-1H-pyrrolo[3,2-b]pyridine hydrochloride] | 80 nM
21 | Cc1c(C)n(CC2OCCO2)c2c(OCc3ccc(Cl)cc3)ccnc12 [Example 87, 7-(4-chlorobenzyloxy)-1-(1,3-dioxolan-2-ylmethyl)-2,3-dimethyl-1H-pyrrolo[3,2-b]pyridine hydrochloride] | 160 nM
22 | COc1ccc(Cn2c(C)c(C)c3nccc(OCc4ccc(F)cc4)c32)cc1 [Example 58, 7-(4-fluorobenzyloxy)-1-(4-methoxybenzyl)-2,3-dimethyl-1H-pyrrolo[3,2-b]pyridine hydrochloride] | 230 nM
23 | Cc1c(C)n(Cc2cccc(Cl)c2)c2c(OCc3ccc(Br)cc3)ccnc12 [Example 226, 7-(4-bromobenzyloxy)-1-(3-chlorobenzyl)-2,3-dimethyl-1H-pyrrolo[3,2-b]pyridine hydrochloride] | 450 nM
24 | Cc1c(C)n(CCC2OCCO2)c2c(N3CCc4ccccc4C3)ccnc12 [Example 14, 1-[2-(1,3-dioxolan-2-yl)ethyl]-7-(1,2,3,4-tetrahydroisoquinolin-2-yl)-2,3-dimethyl-1H-pyrrolo[3,2-b]pyridine hydrochloride] | 530 nM
25 | CCCn1c(C)c(C)c2nccc(OCc3cc(F)cc(F)c3)c21 [Example 182, 7-(3,5-difluorobenzyloxy)-2,3-dimethyl-1-propyl-1H-pyrrolo[3,2-b]pyridine hydrochloride] | 3880 nM
26 | Cc1c(C)n(Cc2ccccc2)c2c(OCc3cc(F)cc(F)c3)ccnc12 [Example 195, 1-benzyl-7-(3,5-difluorobenzyloxy)-2,3-dimethyl-1H-pyrrolo[3,2-b]pyridine hydrochloride] | 680 nM
27 | COCCn1c(C)c(C)c2nccc(OCc3ccc(F)cc3)c21 [Example 130, 7-(4-fluorobenzyloxy)-1-(2-methoxyethyl)-2,3-dimethyl-1H-pyrrolo[3,2-b]pyridine malonate] | 40 nM
28 | Cc1c(C)n(Cc2ccc(F)cc2)c2c(OCc3ccc(Cl)cc3)ccnc12 [Example 91, 7-(4-chlorobenzyloxy)-1-(4-fluorobenzyl)-2,3-dimethyl-1H-pyrrolo[3,2-b]pyridine hydrochloride] | 460 nM
29 | CCCn1c(C)c(C)c2nccc(OCc3ccc(Br)cc3)c21 [Example 229, 7-(4-bromobenzyloxy)-2,3-dimethyl-1-propyl-1H-pyrrolo[3,2-b]pyridine hydrochloride] | 70 nM
30 | Cc1c(C)n(Cc2ccc(C(C)(C)C)cc2)c2c(OCc3ccc(Cl)cc3)ccnc12 [Example 79, 1-(4-tert-butylbenzyl)-7-(4-chlorobenzyloxy)-2,3-dimethyl-1H-pyrrolo[3,2-b]pyridine hydrochloride] | 1590 nM
31 | CCCn1c(C)c(C)c2nccc(NCc3ccc(F)cc3)c21 [Example 260, N-(2,3-dimethyl-1-propyl-1H-pyrrolo[3,2-b]pyridin-7-yl)-4-fluorobenzylamine hydrochloride] | 1210 nM
32 | Cc1[nH]c2c(OCc3ccc(Br)cc3)ccnc2c1C [Example 218, 7-(4-bromobenzyloxy)-2,3-dimethyl-1H-pyrrolo[3,2-b]pyridine] | 3280 nM
33 | COc1cccc(Cn2c(C)c(C)c3nccc(OCc4ccc5c(c4)OCO5)c32)c1 [Example 119, 7-(benzo[1,3]dioxol-5-ylmethoxy)-1-(3-methoxybenzyl)-2,3-dimethyl-1H-pyrrolo[3,2-b]pyridine hydrochloride] | 230 nM
